Laboratory results taken from patent US20240000977A1, “METHODS AND KITS FOR DIAGNOSING AND TREATING CANCERS” (Baruch S. Blumberg Institute, priority 2020, published 2024).

Columns and labels:
[1] = tested on: H3K36me3-deficient tumor xenografts; conditions: cited from earlier work
[2] = tested on: SETD2−/− cells; conditions: cited from earlier work
[3] = tested on: DACH1^+/+ 3T3 cells; test: BrdU / propidium iodide flow cytometry of S-phase cells after WEE1 inhibition; type: cell-based; conditions: Wt (DACH1^+/+) 3T3 cells, Adavosertib 10 μM, 24 h, 20 μM BrdU pulse 30 min; mean of 4 experiments
Protocol: (§1) DACH1 deficiency was determined to promote accumulation of non-proliferative S-phase cells by WEE1 kinase inhibitors. DACH1^+/+ and DACH1^−/− 3T3 cells were treated for 24 h with Adavosertib at 10 μM, a small molecule inhibitor of the tyrosine kinase WEE1, or with DMSO, as the control (see FIGS. 18A and 18B). Prior to harvest, the 3T3 cells were pulsed with 20 μM BrdU for 30 min at a temperature of 37° C. to enable detection of cells with active DNA replication. After harvesting the 3T3 cells, the 3T3 cells were stained with propidium iodide (DNA content) and an anti-BrdU antibody (Abcam). […] Representative FACS plots are shown (see FIGS. 19A-19E). […] Data is shown as mean±SEM for 4 separate experiments.

[4] = tested on: DACH1^−/− 3T3 cells; test: as above; type: cell-based; conditions: 24 h
Protocol: as §1

[5] = tested on: L1210 leukemia; conditions: murine L1210 leukemia, single agent; cited from earlier work

| Molecule | effect on tumor xenografts [1] | sensitivity of cells [2] | non-proliferating S-phase population [3] | BrdU incorporation upon inhibition of WEE1 kinase ([4]; 10 μM) | non-proliferating S-phase population ([4]; Adavosertib 10 μM, 20 μM BrdU pulse 30 min, mean of 4 experiments) | antileukemic effects, agent given alone [5] |
| --- | --- | --- | --- | --- | --- | --- |
| C=CCn1c(=O)c2cnc(Nc3ccc(N4CCN(C)CC4)cc3)nc2n1-c1cccc(C(C)(C)O)n1 [Adavosertib] | regresses | hypersensitive | 13.8% | failed to incorporate the BrdU | 38.3% |  |
| IL-12: IL-12 proteins, cytokine used in chemo-immunotherapy |  |  |  |  |  | moderate antileukemic effects |
